Consider twelve compounds from patent US20150005288A1, “SUBSTITUTED PHENYLIMIDAZOPYRAZOLES AND USE THEREOF” (Bayer Intellectual Property GmbH, priority 2012, published 2015).

Test [1] has as its target T1, intracellular domain of human Tie2 (GST fusion protein) (Homo sapiens, UniProt Q02763).
T1 construct: intracellular domain of human Tie2 (amino acids 776-1124); made in house; host or cells: Baculovirus-infected insect cells (Hi5)
As to the kind of experiment: Tie2 kinase assay (Tie2-TR-FRET). Type of test: biochemical. The conditions noted are these: ATP concentration 1 mM, in some cases means of several independent determinations. In short, it runs like this: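 High ATP (1 mM final) with 1 μM biotin-peptide substrate; reaction 60 min at 22 °C after 15 min compound pre-binding to GST-Tie2 (aa 776-1124) in HEPES pH 7 with Mg/Mn. Phosphopeptide detected by TR-FRET emission ratio 665/620 nm. IC50 from 4-parameter fit over 20 μM to 0.073 nM, duplicates.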

A further test addresses T2, endogenous Tie2 receptor (Homo sapiens, UniProt Q02763).
T2 construct: the endogenous Tie2 receptor; host or cells: HUVEC (human umbilical vein endothelial cells)
The test can be described thus: Tie2-pTyr-ELISA: autophosphorylation of endogenous Tie2 receptor in HUVEC. Type of test: cell-based. The settings on record: autophosphorylation elevated by sodium orthovanadate (4 mM), Tie2/phosphotyrosine sandwich ELISA, from 2-7 independent measurements. How it is done: The cellular activity of the compounds according to the invention as Tie2 kinase inhibitors was determined in human endothelial cells (HUVEC) by measuring the inhibition of the autophosphorylation, elevated by treatment with sodium orthovanadate, of the endogenous Tie2 receptor by means of a Tie2/phosphotyrosine sandwich ELISA.
Human endothelial cells (human umbilical vein endothelial cells, HUVEC) were obtained from Cellsystems (FC-0003), cultured in Vasculife VEGF complete medium (Cellsystems, LL-1020) with 2% foetal calf serum (FCS) at 37° C./5% CO2 and used for Tie2-ELISA measurements up to passage 8.
HUVEC were plated in a culture volume of 100 μl of Vasculife VEGF complete medium at a cell density of 30 000 cells per well in transparent collagen-coated 96-well cell culture plates (Falcon, #353075) and incubated in an incubation cabinet at 37° C./5% CO2 overnight. The test substances dissolved in DMSO were used to prepare in each case one dilution series in Vasculife VEGF low-serum medium [basal medium with LifeFactors (Cellsystems, LM-0002), without FCS, with 0.1% BSA] without sodium orthovanadate and one dilution series in Vasculife VEGF low-serum-medium with 8 mM sodium orthovanadate in the desired concentrations in the range from 10 pM to 10 μM, the final DMSO concentration being 1%. After removal of the complete medium, 100 μl per well of the dilute substances in low-serum medium without sodium orthovanadate were pipetted onto the cells, and the plates were incubated in an incubation cabinet at 37° C./5% CO2 for 10 min. A further 100 μl of the same substance dilution in low-serum medium with 8 mM sodium orthovanadate were then pipetted into the respective well and the cells were incubated in a volume of now 200 μl in the presence of 4 mM sodium orthovanadate at the desired substance concentration in an incubation cabinet at 37° C./5% CO2 for a further 20 min. The cell supernatant of the plates was then removed and the cells were washed once with 250 μl per well of cold PBS which contained 4 mM sodium orthovanadate. 120 μl of Duschl lysis buffer [50 mM HEPES pH 7.2, 150 mM NaCl, 1 mM MgCl2, 10% glycerol, 1.5% Triton X-100, 4 mM sodium orthovanadate, 250 μl S-PIC phosphatase inhibitor cocktail 2 (Sigma, P5726) and 1 tablet of Complete proteinase inhibitor mixture (Roche, #1836145) per 10 ml] were then added to the cells in each well. The plates were shaken briefly and then incubated on ice for 20 min, and the lysates in the cell culture plates were then frozen at −80° C. for at least 30 min.
For measuring the autophosphorylation of the endogenous Tie2 receptor in the cell lysates prepared, a self-prepared anti-Tie2 antibody directed against the N-terminus of the Tie-2 receptor (1.09 mg/ml) and an HRP-coupled anti-phosphotyrosine antibody (Sigma, A4595, clone pY-20) were used. White 96-well ELISA plates (Lumitrac600, Greiner, #655074) were incubated with 100 μl per well of a 1:1000 dilution of the anti-Tie2 antibody in coating buffer [15 mM Na2CO3, 35 mM NaHCO3, pH 9.6] with shaking at 4° C. overnight. The coated ELISA plates were washed three times with 250 μl PBST buffer [0.1% Tween-20 in PBS], the wells were blocked with 250 μl 3% BSA in PBST buffer with shaking at RT for 1-6 h and washed three more times with 250 μl PBST buffer. From the cell lysate plates thawed in the fridge, in each case 100 μl of lysate were transferred into the coated wells of the ELISA plates, and the plates were incubated with shaking at 4° C. overnight. The plates were washed three times with in each case 250 μl of PBST buffer, and 100 μl of a 1:5000 dilution of the anti-phosphotyrosine HRP antibody in 3% Prionex (Calbiochem, #529600) in PBST were then pipetted into each well and the plates were incubated with shaking and protected from light at 4° C. overnight. […]
For orientation: An ELISA detects its analyte on a solid surface through an enzyme-linked reagent.

The structures appear in SMILES notation. pIC50: −log10 of the molar value.

T2 sequence (Q02763 23-1124): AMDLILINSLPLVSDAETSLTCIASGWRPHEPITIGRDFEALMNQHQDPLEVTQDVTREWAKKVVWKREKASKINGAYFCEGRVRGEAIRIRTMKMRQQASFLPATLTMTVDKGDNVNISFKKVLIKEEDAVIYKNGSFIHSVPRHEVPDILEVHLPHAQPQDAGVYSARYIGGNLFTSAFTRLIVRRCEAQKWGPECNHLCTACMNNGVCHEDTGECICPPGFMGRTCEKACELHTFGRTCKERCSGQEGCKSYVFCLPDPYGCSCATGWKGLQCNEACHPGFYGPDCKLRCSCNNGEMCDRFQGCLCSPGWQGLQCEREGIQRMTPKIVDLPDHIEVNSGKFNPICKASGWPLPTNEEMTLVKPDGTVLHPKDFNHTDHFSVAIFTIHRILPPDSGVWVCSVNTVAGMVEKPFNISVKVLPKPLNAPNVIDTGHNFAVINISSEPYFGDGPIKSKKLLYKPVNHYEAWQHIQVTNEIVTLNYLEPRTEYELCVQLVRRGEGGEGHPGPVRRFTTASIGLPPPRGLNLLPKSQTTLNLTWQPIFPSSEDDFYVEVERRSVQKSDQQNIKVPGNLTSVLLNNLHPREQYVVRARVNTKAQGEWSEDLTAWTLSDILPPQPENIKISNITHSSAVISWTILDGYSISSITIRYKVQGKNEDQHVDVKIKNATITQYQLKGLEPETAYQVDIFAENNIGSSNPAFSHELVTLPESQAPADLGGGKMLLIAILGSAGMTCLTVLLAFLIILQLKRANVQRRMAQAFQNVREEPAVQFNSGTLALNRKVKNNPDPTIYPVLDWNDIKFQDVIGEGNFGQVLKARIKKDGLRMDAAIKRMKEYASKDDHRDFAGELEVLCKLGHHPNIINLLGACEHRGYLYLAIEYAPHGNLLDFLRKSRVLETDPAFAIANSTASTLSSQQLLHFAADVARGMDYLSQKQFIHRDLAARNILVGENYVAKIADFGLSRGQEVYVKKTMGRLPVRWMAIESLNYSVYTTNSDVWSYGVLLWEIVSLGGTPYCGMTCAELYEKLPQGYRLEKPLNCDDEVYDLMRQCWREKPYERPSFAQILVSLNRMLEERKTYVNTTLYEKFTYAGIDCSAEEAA
T1 sequence (Q02763 776-1124): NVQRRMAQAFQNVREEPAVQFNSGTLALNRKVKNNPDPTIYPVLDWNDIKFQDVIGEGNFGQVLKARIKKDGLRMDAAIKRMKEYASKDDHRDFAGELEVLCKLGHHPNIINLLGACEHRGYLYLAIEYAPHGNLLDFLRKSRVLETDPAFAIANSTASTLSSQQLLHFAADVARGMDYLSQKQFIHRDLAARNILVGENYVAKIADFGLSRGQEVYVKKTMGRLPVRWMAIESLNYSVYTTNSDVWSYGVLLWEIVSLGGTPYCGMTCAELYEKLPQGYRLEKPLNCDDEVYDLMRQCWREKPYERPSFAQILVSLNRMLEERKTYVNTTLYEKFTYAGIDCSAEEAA

A word on the pIC50: it is the IC50 on a negative log10 scale, so that one unit is a factor of ten. Read a high pIC50 as a small IC50. In the case of `Cc1ccc(NC(=O)c2cc(-n3ccnc3C)cc(C(F)(F)F)c2)cc1-n1ccn2nc(-c3cn[nH]c3)cc12` [Example 6, 3-(2-Methyl-1H-imidazol-1-yl)-N-{4-methyl-3-[6-(1H-pyrazol-4-yl)-1H-imidazo[1,2-b]pyrazol-1-yl]phenyl}-5-(trifluoromethyl)benzamide], the negative-log IC50 (pIC50) was 8.30 in test [1] and 7.77 at endogenous Tie2 receptor.

As to `Cc1ccc(NC(=O)c2cc(-n3ccnc3C)cc(C(F)(F)F)c2)cc1-n1ccn2nc(-c3cccnc3)cc12` [Example 40, 3-(2-Methyl-1H-imidazol-1-yl)-N-{4-methyl-3-[6-(pyridin-3-yl)-1H-imidazo[1,2-b]pyrazol-1-yl]-phenyl}-5-(trifluoromethyl)benzamide], the negative-log IC50 (pIC50) in test [1] is 9.30; against endogenous Tie2 receptor, 8.64.

On to `Cc1cc(NC(=O)c2cc(C#N)cc(S(F)(F)(F)(F)F)c2)cc(-n2ccn3nc(-c4cccnc4)cc23)c1C` [Example 102, 3-Cyano-N-{3,4-dimethyl-5-[6-(pyridin-3-yl)-1H-imidazo[1,2-b]pyrazol-1-yl]phenyl}-5-(pentafluoro-λ^6-sulphanyl)benzamide], for which the figures for the pIC50 (in test [1]; on endogenous Tie2 receptor) were 7.72 and 7.74, respectively.

For the compound `Cc1ccc(NC(=O)c2cc(C#N)cc(S(F)(F)(F)(F)F)c2)cc1-n1ccn2nc(-c3cnccn3)cc12` [Example 162, 3-Cyano-N-{4-methyl-3-[6-(pyrazin-2-yl)-1H-imidazo[1,2-b]pyrazol-1-yl]phenyl}-5-(pentafluoro-λ^6-sulphanyl)benzamide], the pIC50 in test [1] was 7.55; against endogenous Tie2 receptor, 8.05.

For the compound `Cc1ccc(NC(=O)c2cc(N3CCN(C)CC3)cc(S(F)(F)(F)(F)F)c2)cc1-n1ccn2nc(-c3cn[nH]c3)cc12` [Example 2, 3-(4-Methylpiperazin-1-yl)-N-{4-methyl-3-[6-(1H-pyrazol-4-yl)-1H-imidazo[1,2-b]pyrazol-1-yl]-phenyl}-5-(pentafluoro-λ^6-sulphanyl)benzamide], the pIC50 was 8.22 in test [1] and 8.12 at endogenous Tie2 receptor.

In the case of `Cc1cc(C)c(-n2ccn3nc(-c4cccnc4)cc23)cc1NC(=O)c1cc(C#N)nc(C(C)(C)C)c1` [Example 116, 2-tert-Butyl-6-cyano-N-{2,4-dimethyl-5-[6-(pyridin-3-yl)-1H-imidazo[1,2-b]pyrazol-1-yl]phenyl}-isonicotinamide], the negative logarithm of the IC50 (pIC50) in test [1] is 9.30; against endogenous Tie2 receptor, 8.54.

As to `Cc1cc(F)c(NC(=O)c2cc(C#N)cc(S(F)(F)(F)(F)F)c2)cc1-n1ccn2nc(-c3cccnc3)cc12` [Example 75, 3-Cyano-N-{2-fluoro-4-methyl-5-[6-(pyridin-3-yl)-1H-imidazo[1,2-b]pyrazol-1-yl]phenyl}-5-(pentafluoro-λ^6-sulphanyl)benzamide], the values for the pIC50 (in test [1]; on endogenous Tie2 receptor) were 9.30 and 8.77, respectively.

As to `Cc1cc(C)c(-n2ccn3nc(-c4cccnc4)cc23)cc1NC(=O)c1cc(F)cc(S(F)(F)(F)(F)F)c1` [Example 107, N-{2,4-Dimethyl-5-[6-(pyridin-3-yl)-1H-imidazo[1,2-b]pyrazol-1-yl]phenyl}-3-fluoro-5-(pentafluoro-λ^6-sulphanyl)benzamide], the pIC50 in test [1] was 9.22; against endogenous Tie2 receptor, 9.05.

Turning to `Cc1ccc(NC(=O)c2cc(C#N)cc(S(F)(F)(F)(F)F)c2)cc1-n1cc(C)n2nc(-c3cn[nH]c3)cc12` [Example 12, 3-Cyano-N-{4-methyl-3-[3-methyl-6-(1H-pyrazol-4-yl)-1H-imidazo[1,2-b]pyrazol-1-yl]phenyl}-5-(pentafluoro-λ^6-sulphanyl)benzamide], the results for the pIC50 (in test [1]; on endogenous Tie2 receptor) were 9.15 and 8.33, respectively.

For the compound `Cc1ccc(NC(=O)c2cc(CN3CCCC3)cc(C(C)(C)C)c2)cc1-n1ccn2nc(-c3cccnc3)cc12` [Example 51, 3-tert-Butyl-N-{4-methyl-3-[6-(pyridin-3-yl)-1H-imidazo[1,2-b]pyrazol-1-yl]phenyl}-5-(pyrrolidin-1-ylmethyl)benzamide], the pIC50 in test [1] is 9.15; against endogenous Tie2 receptor, 8.06.

In the case of `Cc1ccc(-n2ccn3nc(-c4cccnc4)cc23)cc1NC(=O)c1cc(C#N)cc(S(F)(F)(F)(F)F)c1` [Example 77], the pIC50 in test [1] is 7.89; on endogenous Tie2 receptor, 8.06.

Take `COCc1cc(C(=O)Nc2cc(-n3ccn4nc(-c5cccnc5)cc34)c(C)cc2C)cc(S(F)(F)(F)(F)F)c1` [Example 112, N-{2,4-Dimethyl-5-[6-(pyridin-3-yl)-1H-imidazo[1,2-b]pyrazol-1-yl]phenyl}-3-(methoxymethyl)-5-(pentafluoro-λ^6-sulphanyl)benzamide]: the pIC50 in test [1] is 9.15; against endogenous Tie2 receptor, 8.85.
